Results taken from a melting point compilation (Tetko et al.; mined from patent text by program, amines drawn as free bases though some values may be those of a salt).

Going from `COC(=O)c1ccccc1NC(C#N)c1ccc(Br)cc1` (stereo unspecified) to `CC#CCOc1ccc(SC(C(=O)NO)c2ccc(Br)cc2)cc1` (stereo unspecified), the melting point rises from 112 °C to 153 °C.

First: CC1(C)NC(=O)c2ccccc2N1CCCN1CCC(C(=O)c2ccc(F)cc2)CC1
Second: Cc1[nH]c(C(=O)N2CCC(C(=O)NCCCN(C)C)CC2)c(C)c1-c1nc2ccc(C(=O)c3ccccc3)cc2[nH]1
The melting point of the first is lower: 186 °C for the first, 247 to 251 °C for the second.

First: CC(C(=O)O)c1ccc2c(c1)Cc1cc(F)ccc1S2 (stereo unspecified)
Second: CC(C(=O)O)c1ccc2c(c1)C(=O)Cc1ccc(F)cc1S2 (stereo unspecified)
The melting point of the first is lower: 140 to 145 °C for the first, 148 °C for the second.

First: COc1ccc(/C=C/S(=O)(=O)CS(=O)(=O)/C=C/c2ccc(O)c(OC)c2)cc1O
Second: COc1cccc(S(=O)(=O)N2CCc3cc(OCc4ccccc4)c(OC)cc3C2)c1
The melting point of the first is higher: 148 to 150 °C for the first, 124 to 125 °C for the second.

First: CC(C)(S)C(=O)N[C@@H](CS)C(=O)O
Second: CC(C)(C)OC(=O)c1ccc(C(=O)O)cc1
The melting point of the first is higher: 139 to 140 °C for the first, 100 to 102 °C for the second.

Compared with `CNc1nc(C#N)c(-c2ccncc2)s1`, `CCCCCc1nc(NC(=N)N)sc1-c1cccc([N+](=O)[O-])c1` is lower in melting point: 192 to 195 °C for the first, 135 to 137 °C for the second.

First: CC(=O)OCN1C(=O)CN(CCN2CC(=O)N(COC(C)=O)C(=O)C2)CC1=O
Second: COc1ccc2c(c1)cc1n2CCC(COC(C)=O)C1 (stereo unspecified)
The melting point of the first is higher: 178 to 181 °C for the first, 98 to 100 °C for the second.

First: CC(C)c1ccc(C(=O)NCCCCN2CCN(C(c3ccccc3)c3ccccc3)CC2)c(O)n1
Second: CS(=O)(=O)N1CCN([C@@H](CNS(=O)(=O)c2ccc(OCc3cccc4ccccc34)cc2)C(=O)NO)CC1
The melting point of the first is higher: 184 to 186 °C for the first, 148 °C for the second.

Compared with `OCC(O)Cc1nccn1CCCCc1ccc(OCc2coc(/C=C/c3ccc(F)cc3F)n2)cc1` (stereo unspecified), `COc1cccc(O[C@@H]2COc3ccc(-c4ccc5cc(F)ccc5n4)cc3[C@@H]2O)c1` (relative stereo) is higher in melting point: 126 to 128 °C for the first, 131 to 132 °C for the second.

First: CC(C)Oc1ccc(Cc2ccc(NC3=NCCN3)cc2)s1
Second: Brc1c(NC2=NCCN2)ccc2ncn(CC3CCCCC3)c12
The melting point of the first is lower: 134 to 135 °C for the first, 153 to 155 °C for the second.

First: CC(/C=C/n1ncc(-c2ccc(S(N)(=O)=O)cc2)c(-c2ccc(F)cc2)c1=O)C(F)(F)F (stereo unspecified)
Second: CC(C)c1nc(-c2ccccc2)n(-c2ccc(F)cc2)c1CO
The melting point of the first is lower: 155 to 157 °C for the first, 186 to 188 °C for the second.

First: Cc1nnc(-c2sc(N3CCN(Cc4ccccc4)C3=O)nc2C)[nH]1
Second: Cc1nc(N2CCN(Cc3ccc(F)cc3)C2=O)sc1C(=O)NCc1cocn1
The melting point of the first is higher: 284 to 287 °C for the first, 188 to 191 °C for the second.

Compared with `CC1(C)CC(Cl)C(=Cc2ccc(F)cc2)C1=O` (stereo unspecified), `CN1C(=O)C2CC(c3ccc(Cl)cc3)(C2)C1=O` is higher in melting point: 69 °C for the first, 155 to 156 °C for the second.

First: Cc1cc(C(O)CS(C)(=O)=O)cc(C)c1N(C)C (stereo unspecified)
Second: CC(=O)OC1Oc2ccc(OS(=O)(=O)N(C)C)cc2C1(C)C (stereo unspecified)
The melting point of the first is higher: 133 to 134 °C for the first, 67 to 68 °C for the second.

First: Cc1ccc2c3c(ccc2n1)OCC(CNCC1CCc2[nH]c4ccc(Cl)cc4c2C1)O3 (stereo unspecified)
Second: COc1ccc2c3cc(C(=O)NCCc4ccc(Cl)cc4)ccc3n(CC3CCCCC3)c2c1
The melting point of the first is lower: 104 to 105 °C for the first, 179 to 181 °C for the second.

Compared with `CN(Cc1ccccc1)c1nc(=O)c2cc(C(F)(F)F)cc([N+](=O)[O-])c2s1`, `CC(C)C(=O)C(C#N)=C(O)c1ccc(C(F)(F)F)cc1[N+](=O)[O-]` is lower in melting point: 120 to 124 °C for the first, 83 to 85 °C for the second.

First: CC(Oc1ncn(-c2cccc(Br)c2)n1)C(=O)NC1CC1 (stereo unspecified)
Second: C=CCNC(=O)N1CC(Oc2cccc(C)c2)C1
The melting point of the first is higher: 134 to 135 °C for the first, 95 to 96 °C for the second.

First: CC(=N)Nc1cccc(C(C)O)c1 (stereo unspecified)
Second: CC(=O)OCc1ccc(Cl)cc1C(O)c1ccccc1 (stereo unspecified)
The melting point of the first is higher: 132 to 135 °C for the first, 86 to 88 °C for the second.

First: Nc1cc([N+](=O)[O-])c2c(c1N)CCCC2
Second: CC(=O)Nc1c(C)ccc([N+](=O)[O-])c1C
The melting point of the first is higher: 181 to 182 °C for the first, 171 to 173 °C for the second.

Compared with `COc1ccc(-c2coc3ccc(-c4nnc(S)o4)cc23)cc1`, `COc1ccc(-c2[nH]nc3c2C(=O)c2c(NC(=O)NNC(=O)c4cc(N)cc(N)c4)cccc2-3)cc1` is higher in melting point: 204 to 205 °C for the first, greater than 300 °C for the second.

First: Cc1nc(-c2ccc(NC(=O)CCCC(=O)Nc3ccc(-c4noc(C)n4)cc3)cc2)no1
Second: O=C(CCCCl)Nc1ccc2c(c1)C(=O)c1cc(NC(=O)CCCCl)ccc1C2=O
The melting point of the first is higher: 235 to 237 °C for the first, 234 °C for the second.

Compared with `CC1CC(=O)c2cc(N)c(F)cc2O1` (stereo unspecified), `Nc1ccc2c(c1)CCC1CC(=O)NN=C21` (stereo unspecified) is higher in melting point: 135 to 138 °C for the first, 290 to 291 °C for the second.

`COc1cc(CC(=O)N[C@@H](COC(=O)C(C)(C)C)Cc2ccccc2)ccc1OCCN=[N+]=[N-]` and `CC(=O)c1ccccc1NC(=O)Cc1ccccc1` cannot be ordered by melting point: 77 to 80 °C for the first, 78 °C for the second.

First: O=C(/C=C/c1cccc([N+](=O)[O-])c1)N1CCN(C(=O)c2cc(C(F)(F)F)cc(C(F)(F)F)c2)[C@H](Cc2c[nH]c3ccccc23)C1
Second: O=S(=O)(Nc1ccc2c(OCc3csc(C4COc5ccccc5O4)n3)cccc2c1)C(F)(F)F (stereo unspecified)
The melting point of the first is lower: 127 to 133 °C for the first, 183 to 185 °C for the second.

Compared with `N#Cc1ccccc1Cn1nnc2cc3c(cc2c1=O)OC1CCCN1C3=O` (stereo unspecified), `COc1cc2ncnc(N3CCCc4ccccc43)c2cc1SC` is lower in melting point: 257 to 260 °C for the first, 193 to 196 °C for the second.

`CCc1nn(CCCO)c(CC)c1Oc1cc(C#N)cc(C#N)c1` and `CCCN(CCC)C1Cc2cc(C)cc3ncn(c23)C1` (stereo unspecified) cannot be ordered by melting point: 93 to 95 °C for the first, 91 to 94 °C for the second.

Compared with `COC(=O)COc1ccc(N=C=O)cc1`, `CCOC(=O)C(=O)Nc1cccc2ccccc12` is higher in melting point: 50 to 53 °C for the first, 105 to 107 °C for the second.

First: CCOC(=O)C1=Cc2cc(Cl)cc(CO)c2OC1C(F)(F)F (stereo unspecified)
Second: CCOC(=O)c1cnccc1CSc1nc(C)c(CC(=O)O)s1
The melting point of the first is lower: 98 to 100 °C for the first, 139 to 141 °C for the second.

First: CCC(C)(C)c1ccc(Oc2ccc(C(=O)c3ccc(Oc4ccc(C(C)(C)CC)cc4C(C)(C)CC)cc3)cc2)c(C(C)(C)CC)c1
Second: CCCc1nc(C(C)(C)O)c(C(=O)OCC)n1Cc1ccc(-c2ccccc2C(=O)NC(C)(C)C)cc1
The melting point of the first is lower: 54 to 56 °C for the first, 145 to 146 °C for the second.

Compared with `CC1(C)C(=O)Nc2cc(-c3nc4ccccc4[nH]3)ccc21`, `COc1ccc2[nH]c(Sc3ccc(C=O)o3)nc2c1` is lower in melting point: 326 to 330 °C for the first, 94 to 99 °C for the second.

Compared with `COC(=O)c1nc2c(c(-c3cccs3)nn2-c2ccccc2)c(N)c1C(=O)OC`, `O=C1CN(c2ccccc2)C(=O)C1c1ccccc1` (stereo unspecified) is higher in melting point: 178 to 180 °C for the first, 285 to 287 °C for the second.

First: CCCCCCN(CCCCCC)C(Nc1ccc(-c2ccccc2)cc1)=C1C(=O)COC1=O
Second: OC(CNCCCCCCOCCCCc1ccccc1)c1cc(OCc2ccccc2)cc(OCc2ccccc2)c1 (stereo unspecified)
The melting point of the first is higher: 138 to 140 °C for the first, 65 to 67 °C for the second.

First: CC(c1ccc(Cl)cc1Cl)C1(c2cccnc2)OC=CC1=O (stereo unspecified)
Second: C=COc1nc2c(c3ccccc13)c1cc(Cl)ccc1n2C
The melting point of the first is lower: 111 to 112 °C for the first, 121 to 124 °C for the second.

Compared with `CC(C)(C)OC(=O)CCCCCCCCCC[N+](=O)[O-]`, `CC(C)N(C)C(=O)COCCCCCCCC[C@H]1C[C@]2(C)[C@@H](O)CC[C@H]2[C@@H]2CCc3cc(O)ccc3[C@@H]12` is higher in melting point: 39 to 42 °C for the first, 126 °C for the second.

Compared with `CN(C[C@H]1CC[C@H](NC(=O)OCc2ccccc2)CC1)C1CCOCC1`, `O=C(Cl)c1ccc(OCc2ccccc2)c(Cl)c1` is lower in melting point: 81 to 84 °C for the first, 78 to 80 °C for the second.

First: O=c1cccccc1N1CCN(c2cccccc2=O)CC1
Second: O=[N+]([O-])c1ccccc1OCc1ccc2ccccc2n1
The melting point of the first is higher: 184 to 186 °C for the first, 121 to 122 °C for the second.

Compared with `Cc1ccc2c(c1C)OC(C)C(NNc1ncnc3c1ncn3C1OC(CO)C(O)C1O)C2` (stereo unspecified), `Cc1cccc(N2CCOC2=O)c1COc1cccn2c(CO)c(C)nc12` is higher in melting point: 109 to 113 °C for the first, 190 to 193 °C for the second.

First: CCOC(=O)c1ccc(/C=C(\C)c2ccc3c(c2)C(C)(C)CCCC3)cc1
Second: CCOC(=O)c1cccc(-c2ccc3c(c2)C(=O)CCC3)c1
The melting point of the first is lower: 69 to 70 °C for the first, 89 to 90 °C for the second.

Compared with `N[C@@H]1C[C@H]2CC[C@@H]1N(c1cc3c(cc1F)c(=O)c(C(=O)O)cn3C1CC1)C2`, `O=C1c2ccc(N3CCCC3)c3c(Cl)c(Cl)cc(c23)C(=O)N1O` is lower in melting point: 267 to 270 °C for the first, 200 to 201 °C for the second.

First: COc1ccc2c(c1)OCC(n1ccnc1)C2=O (stereo unspecified)
Second: CC1CCNc2nc3ccc([N+](=O)[O-])cc3n21 (stereo unspecified)
The melting point of the first is lower: 151 to 155 °C for the first, 172 to 178 °C for the second.

First: CCOC(=O)CCC(=O)c1ccc(O)c(O)c1
Second: Cc1cccc(C(=O)C=C2CCCN2C)c1
The melting point of the first is higher: 116 to 117 °C for the first, 60 to 62 °C for the second.

First: Cc1cc(C)cc(NS(=O)(=O)c2ccc(N3CCNC3=O)cc2)c1
Second: CNCCc1ccc2[nH]cc(S(=O)(=O)c3ccccc3)c2c1
The melting point of the first is higher: 216 to 218 °C for the first, 151 to 154 °C for the second.

First: O=[N+]([O-])c1cc(Cl)c(Cl)cc1NCCCCl
Second: Cc1cc2oc(C(=O)O)cc(=O)c2c(C)c1Cl
The melting point of the first is lower: 78 °C for the first, 289 to 290 °C for the second.

Compared with `CCCCCN1CC[C@@H](c2ccccc2Br)[C@H](CO)C1` (racemic), `CCCCCCCCNC(=O)C(C)=Cc1cccc(N2CC(C(=O)O)CC2=O)c1` (stereo unspecified) is higher in melting point: 119 to 120 °C for the first, 120 to 121 °C for the second.

Compared with `CCc1c(Cc2cc(OC)c(OC)c(OC)c2)[nH]c(=O)c(CC(C)C)[n+]1[O-]`, `CC(C)Cn1c(=O)n(C)c(=O)c2c(SCCCC(=O)O)n(Cc3cccc4ccccc34)nc21` is higher in melting point: 126 to 127 °C for the first, 149 °C for the second.

Compared with `Cc1cc(N)c(C)c(Cl)c1Oc1ccc(Cl)c2ccccc12`, `Cc1c(C)c(N2Cc3ccccc3C2)c(C)c2c1OC(C)(C)C2c1ccc(F)cc1` (stereo unspecified) is higher in melting point: 118 to 125 °C for the first, 204 to 205 °C for the second.

First: CSc1nc(Cl)c2cc(Br)ccc2n1
Second: Cc1nnsc1CS(=O)(=O)c1ccccc1
The melting point of the first is higher: 124 °C for the first, 118 °C for the second.

First: Clc1cccc(Nc2ncnc3[nH]nc(NCc4ccc(-c5cncs5)cc4)c23)c1
Second: CC1=C(C#N)C(c2ccccc2C(F)(F)F)c2c(ccnc2OC(C)C)N1 (stereo unspecified)
The melting point of the first is higher: 235 °C for the first, 207 to 209 °C for the second.

Compared with `CC1(O)CC(=O)OC(CCc2ccc(O)cc2)C1` (stereo unspecified), `Oc1ccc(C2(c3ccc(O)c(Cl)c3)CCCCCCCCCCC2)cc1Cl` is higher in melting point: 135 to 137 °C for the first, 167 to 169 °C for the second.

First: CN(C)CCNC1=CC(=O)c2oc(-c3cc(F)c(F)c(F)c3)nc2C1=O
Second: O=C1CC(C(=O)O)N(C(=O)CCS)N1 (stereo unspecified)
The melting point of the first is higher: 200 to 201 °C for the first, 140 to 142 °C for the second.

For `C=C(C)C(=O)N1CCC(C(=O)O)CC1`, the melting point was 90 to 93 °C.
